From patent publication US20070026090A1, “Treatment and prevention of inflammatory disease and mitochondrial dysfunction with high dose selenium” (priority 2003, published 2007) come the findings set out here.

Each structure is given as a SMILES string. “Also recorded” adds a separate entry of the source.

Assay [1] concerns mitochondrial DNA (D-loop region). Nature of the assay: Mitochondrial DNA analysis in the colon (D-loop PCR). The format is in vivo, rat. How it is done: Mitochondrial DNA analysis in the colon: Tissue content of mitochondrial DNA was determined using specific primers for the D-loop region in the mitochondrial DNA. Mitochondrial colon tissue genomic DNA, was prepared using the Promega Wizard Genomic DNA Purification Kit (Promega Corp, Madison, Wis.). Mitochondrial DNA was amplified by the PCR reaction: Twenty cycles were used for the amplification with 25 ng total tissue DNA as template. Saturation in intensity of PCR products was observed after 24 cycles.
Primers: Left (sense) 5′-[…]-3′ (SEQ ID NO:1), corresponding to nucleotides 468 to 489 of rat mitochondrial D-loop region DNA (GenBank Accession No. X52757.1).
Right (antisense) 5′-[…]-3′ (SEQ ID NO:2) corresponding to nucleotides 988 to 967 of rat mitochondrial D-loop DNA (GenBank Accession No. X52757.1).
The expected PCR product was 520 bp. Actual PCR product was approximately 520 bp, measured on 1.25% agarose gel in TAE containing ethidium bromide.

Assay [2] concerns MnSOD. Nature of the assay: MnSOD transcription and expression (RTPCR, Western blot). The format is cell-based, murine. How it is done: (§1) Cell culture: Murine J774.2 macrophages (kindly provided by Prof. Dov Zipori from the Weizmann Institute of Science) were grown in RPMI medium supplemented with 10% (w/v) fetal calf serum, penicillin (100 U/ml), streptomycin (100 μg/ml) and 1× glutamine at 37° C. in a humidified atmosphere consisting of 95% air and 5% CO2. Experiments were performed on cells at 60% confluence.
Western blots (Sp1, MnSOD, UCP2): Cells were grown in six-well tissue culture plates, treated with selenium for 72 h and activated with LPS and IFN-γ for 24 h. The wells were washed with PBS, scraped and centrifuged
(5 min. 2000 RPM), and lysed by addition of boiling hot lysis buffer (1% SDS, 1 mM sodium ortho-vanadate, 10 mM Tris pH 7.4) to the pellets. Protein content was measured (BIO RAD protein assay kit) and equalized. Sample buffer (containg SDS) was added and the samples were boiled. The samples were subjected to SDS-PAGE followed by western blot analysis. Separated proteins were transferred electrophoretically from the gel to a nitrocellulose membrane (Amersham International plc, Buckinghamshire, ENGLAND). The membrane was blocked in TBS (0.15 M NaCl/10 mM Tris/HCl, pH7.4) containing 5% (v/v) skimmed milk (Blotto), then incubated over night with primary antibodies at RT (diluted 1/2000 in blotto). After being washed six times in TBST [TBS containing 0.05% (v/v) Tween 20], the membrane was incubated for 2 h at room temperature with secondary antibody (diluted 1/5000 in blotto). Immunoreactive bands were detected with ECL western blotting detection reagents (Amersham Pharmacia Biotech, Buckingammshire England) and developed on film (Fuji super RX, Dusseldorf, Germany). […]
Right (antisense) 5′[…]-3′ (SEQ ID NO: 6) corresponding to nucleotides 622 to 640 of mouse mRNA region (GenBank Accession No. NM 013671). […] Actual PCR product was approximately 570 bp, measured on 1.25% agarose gel in TAE containing ethidium bromide.
PCR was performed with 28 cycles (25 cycles for GAPDH) of 30 seconds at 96° C., 30 seconds at 58° C. and 1 min at 72° C. RTPCR products were analyzed on 1.3% (w/v) agarose gels.
For orientation: Immunoblotting shows a protein as a band on a membrane.

For assay [3], the system named is Sp1. Description: Sp1 binding activity of nuclear extracts of treated macrophages (EMSA). The format is cell-based, murine. How it is done:
as §1
(§2) Nuclear extracts: Nuclear Extracts were prepared using a slight modification of the method of Dignam et al (23). Treated cells were washed with cold PBS, scraped and centrifuged. Hypotonic buffer (1 ml, 20 mM HEPES pH 7.0, 10 mM KCl, 1 mM mGCl2, 0.5 mM DTT, 0.1% Triton X-100, 20% glycerol, 2 mM PMSP, 1 mg/ml Aprotonin and Leupeptin) was added to the cell pellets, the pellets were disrupted by pipetting, and centrifuged 3000 RPM for 5 min. The pellets were re-suspended in 100 μl cold extraction buffer (20 mM HEPES pH 7.0, 10 mM KCl, 1 mM mGCl2, 0.5 mM DTT, 0.1% Triton X-100, 20% glycerol, 2 mM PMSF, 1 mg/ml Aprotonin and Leupeptin, 420 mM NaCl). The samples were rotated for 20 min at 4° C., centrifuged 15,000 RPM for 10 min, and supernatants collected. Protein content was measured using Bradford reagent. Samples were stored frozen at minus 70° C.
Electromobility shift assay (EMSA)—Gel shift assays were performed according to the gel shift assay protocol from Promega Corp. (San Luis Obispo, Calif.). A 22-mer double-stranded NF-κB consensus oligonucleotide 5′-[…]-3′ (SEQ ID NO:3), and Sp1 consensus oligonucleotide 5′-[…]-3(SEQ ID NO:4), were labeled with 32P. For each reaction, 2 μg of nuclear extract were incubated with 2 μl of 5× binding buffer for 5 min., 1 μl of the ^32P-labeled oligonucleotide was added at room temperature for 20 min., the samples were prepared by adding 1 μl of dye free loading buffer, and separated using 6% non-denaturing acrylamide gel electrophoresis. The gel was dried and exposed to a phosphoimaging screen for 18 hours and then visualized with a phosphoimager. For specificity, 1 μl of unlabeled consensus oligonucleotide was used to compete with the labeled probe.

Assay [4] concerns Sp1. Nature of the assay: Sp1 binding in vitro, selenite added to nuclear extract (EMSA). On the set-up: species or system murine. Particulars: 5 μM added to nuclear extract 5 minutes before (FIG. 13C). How it is done:
as §2
Electromobility shift assay (EMSA)—Gel shift assays were performed according to the gel shift assay protocol from Promega Corp. (San Luis Obispo, Calif.). A 22-mer double-stranded NF-κB consensus oligonucleotide 5′-[…]-3′ (SEQ ID NO:3), and Sp1 consensus oligonucleotide 5′-[…]-3(SEQ ID NO:4), were labeled with 32P. […]
On the technique in general: A gel shift assay detects complexes by their altered migration in electrophoresis.

Turning to `[Se]` [selenium], the “mitochondrial DNA in colon tissue, colitis-induced rats” value in assay [1] (24 h after TNBS, supplemented vs unsupplemented (FIG. 6)) was “intact mitochondrial DNA; also recorded: protects against the loss”. In addition, the “mitochondrial DNA in colon tissue, uninduced rats” value in assay [1] (TNBS−, Se suppl+ (FIG. 6)) is “No change”. In addition, the “lowest concentration effective in significantly reducing MnSOD transcripts and protein” value in assay [2] (24 and 72 hours, resting J774.2 (FIG. 9A, 9B)) was found to be 0.5 µM. Besides, the “MnSOD expression, activated macrophages” value in assay [2] (exposure (72 hours) prior to activation, concentration dependent (FIG. 11)) was “decreased”. Also, in assay [3] (72 hours, then 6 hours LPS + INFγ, range 0.5-5 μM (FIG. 13A lower panel)), the “lowest concentration with dramatic effect on Sp-1 binding, activated macrophages” value was found to be 5 µM. Moreover, in assay [3] (72 hours, unactivated (FIG. 13A upper panel)), the “lowest concentration with dramatic effect on Sp-1 binding, resting macrophages” value was found to be 5 µM. The “binding of Sp-1, activated macrophages” value in assay [3] (concentration-dependent (FIG. 13A)) is reported as “dramatically reduced”. The “Sp-1 binding in vitro” value in assay [4] is “directly inhibited”.
